Measured values: patent US20250109120A1, “INDOLINE DERIVATIVES FOR TREATMENT AND/OR PREVENTION OF TUMOR OR CELL PROLIFERATIVE AND FIBROSIS DISEASES” (NATIONAL TAIWAN UNIVERSITY, priority 2023, published 2025)

Assays:
Assay type in all cases: cell-based, human
A549 cells [1] = assay: Nuclear p-Smad3 T179 and RNA polymerase II pS2/S5 after TGF-β1, fractionation and western blot; details: compound k 5 μM, senexin A 5 μM, pirfenidone 1 mM; TGF-β1 10 ng/ml 3 h
Method: FIGS. 8A-8B show the inhibitory effects of cellular distributions of TGF-β1-induced p-Smad3 T179, RNA polymerase II pS2/S5, and Smad3 after treatment with compound k. Human alveolar epithelial A549 cells were incubated with compound k (5 μM), senexin A (5 μM), or pirfenidone (1 mM) for 1 h, followed by stimulation with TGF-β1 (10 ng/ml) for 3 h. Protein expressions in the cytoplasmic and nuclear fractions were subjected to a Western blot analysis using the indicated antibodies. α-Tubulin and histone H3 served as loading controls for the cytoplasmic and nuclear fractions, respectively. Results are shown as the mean±SEM of three independent experiments. **p<0.01 and ***p<0.001 compared to the control group; #p<0.05 and ##p<0.01 compared to the TGF-β1-treated group.
Cells (106) were incubated for 10 min at 4° C. in lysis buffer (20 mM HEPES at pH 7.4, 2 mM EGTA, 50 mM β-glycerophosphate, 0.1% Triton X-100, 10% glycerol, 1 mM DTT, 1 μg/mL of leupeptin, 5 μg/mL of aprotinin, 1 mM phenylmethylsulfonyl fluoride, and 1 mM sodium orthovanadate), scraped off, incubated on ice for an additional 10 min, and centrifuged at 17,000 g for 30 min at 4° C. Protein samples (20 μg) were then electrophoresed on SDS-polyacrylamide gel electrophoresis (PAGE) gels and transferred to a nitrocellulose membrane, which was then blocked by incubation for 30 min at room temperature with 5% bovine serum albumin (BSA) in Tris-buffered saline with 0.1% Tween-20 (TBST). Immunoblotting was performed by overnight incubation at 4° C. with primary antibodies in TBST, followed by incubation for 1 h at room temperature with horseradish peroxidase (HRP)-conjugated secondary antibodies. Bound antibodies were measured using enhanced chemiluminescence (ECL) reagent (GE Healthcare, UK) and exposed to photographic film.
A Nuclear/Cytosol Fractionation Kit (Biovision, USA) was used to separate the cytosolic and nuclear fractions. […]

A549 cells [2] = assay: TGF-β1-induced oxidative stress (MDA, Nox4); details: compounds 2 μM, TGF-β1 10 ng/ml 24 h
Method: A549 cells were incubated with compounds k, b, a (2 μM), senexin A (5 μM), or pirfenidone (1 mM) for 1 h, followed by treatment with 10 ng/ml TGF-β1 for a further 24 h. Malondialdehyde (MDA) (FIG. 10A) and Nox4 (FIG. 10B) levels were detected. ***p<0.001 compared to the control group; #p<0.05, ##p<0.01, and ###p<0.001 compared to the TGF-β1-treated group.
An end product of lipid peroxidation, malondialdehyde (MDA), was measured by spectrophotometry at a wavelength of 532 nm using malondialdehyde bis(dimethyl acetal) as the standard as per the assay protocol (Cell Biolabs, USA).

[3] = test system: STAT1-S727 phosphorylation (CDK8/19 kinase activity); assay: STAT1-S727 phosphorylation western blot in DU145/PC-3 cells
Method: FIGS. 2A-2D show the evaluation of CDK8 inhibition by compound k. […] Cell viability was measured by MTT assay, and the 50% inhibitory concentration (IC50) values were calculated by a sigmoidal dose-response equation. […] Whole-cell lysates were subjected to western blotting with the indicated antibodies. The results are shown as the mean t SEM from at least three independent experiments (*p<0.05, **p<0.01, and ***p<0.001 vs. control group; #p<0.05 vs. relevant control).
The cells were incubated in lysis buffer for 10 min at 4° C., scraped off, incubated on ice for an additional 10 min and then centrifuged at 17,000 g for 30 min at 4° C. Protein samples were electrophoresed on SDS-PAGE gels, transferred to PVDF membranes and blocked with 5% fat-free milk in PBS for 30 min at room temperature. Immunoblotting was performed overnight with primary antibodies in PBS at 4° C., followed by incubation with HRP-conjugated secondary antibodies for 1 h at room temperature. Bound antibodies will be measured using an ECL reagent and exposed to a photographic film. In the immunoprecipitation assay, cell lysates were immunoprecipitated with 1 μg of antibody and A/G agarose beads overnight at 4° C. After washing the precipitated beads three times with 1 mL ice-cold cell lysis buffer, bound immune complexes were separated by 10% SDS-PAGE and analyzed with immunoblotting.

prostate cancer cells = assay: TGF-β1-induced EMT proteins and gene expression, western blot and real-time PCR
Method: Cells were exposed to compound k as indicated concentrations or senexin A (10 μM) in the presence or absence of TGF-β1 (10 ng/mL) for 24 h, the proteins and mRNA levels of E-cadherin, N-cadherin, Snail, vimentin, α-SMA were determined by western blot (A) or real-time PCR (B). Results are shown as the mean±SEM from at least three independent experiments (**p<0.01, ***p<0.001 vs. control group; #p<0.05, ##p<0.01, and ###p<0.001 vs. TGF-β1 treatment group).
Total RNA was isolated from cells using TRIzol reagent (Invitrogen). […] Quantitative PCR was performed using TaqMan One Step RT-PCR mastermix (ABI) in a total reaction volume of 20 μL per reaction, consisting of 10 μL of SYBR green PCR master mix (Applied Biosystems), 5 pmol of each forward/reverse primer, and 2 μL of cDNA. […] The threshold cycle (Ct) in the exponential phase of amplification was detected, the relative mRNA expression level was determined by calculating the ΔΔCt values, and the fold change was expressed as 2^−ΔΔCt. […]
The cells were incubated in lysis buffer for 10 min at 4° C., scraped off, incubated on ice for an additional 10 min and then centrifuged at 17,000 g for 30 min at 4° C. […] Bound antibodies will be measured using an ECL reagent and exposed to a photographic film. […]

SMILES: CNC(=O)c1cc(Oc2ccc(NS(=O)(=O)c3ccc4c(c3)C(=C(C)C)C(=O)N4)c(F)c2)ccn1 [Compound k, 4-(3-Fluoro-4-((2-oxo-3-(propan-2-ylidene)indoline)-5-sulfonamido)phenoxy)-N-methylpicolinamide]
- phosphorylation of p-Smad3 T179 and RNA Pol II pSer2/5 (A549 cells [1]): significantly reversed
- TGF-β1-caused oxidative stress (MDA and Nox4 levels) (A549 cells [2]): markedly reduced
- phosphorylation of STAT1 at Ser727 ([3]; DU145/PC-3, 24 h, concentration-dependent): suppressed
- phosphorylation of STAT1 at Ser727 in CDK8-overexpressing cells ([3]; pcDNA3 CDK8 HA transfected DU145 and PC-3, concentration-dependent): significantly inhibited
- TGF-β1 effects on E-cadherin, N-cadherin, Snail, vimentin (prostate cancer cells; TGF-β1 10 ng/mL, 24 h): attenuated the effects of TGF-β1
- EMT protein inhibitory effects compared with senexin A (prostate cancer cells; senexin A 10 μM): more potent
